Test results: patent US8034791B2, “Activation of Egr-1 promoter by DNA damaging chemotherapeutics” (The University of Chicago, priority 2001, dated 2011)
Where two headings read alike, the source gives them in different places.

Assays:
[1] = system: PC-3 xenografts; assay type: in vivo, nude mice; settings: IT vector 5×10^9 p.u. + IP agent vs vector and NS, cisplatin 9, cyclophosphamide 160, doxorubicin 15, 5-FU 100 mg/kg
Method: (§1) In vivo measurement of TNF-α protein. PC-3 (1×10^7 cells) or PROb cells (5×10^6) in 100 μl PBS were injected subcutaneously into the right hind limb of nude mice. Tumor-bearing mice received IT Ad.Egr.TNF (5×10^9 p.u. in 10 μl) with 250 μl of complete media with NS or a chemotherapeutic agent, including cisplatin (9 mg/kg), cyclophosphamide (160 mg/kg), doxorubicin (15 mg/kg), 5-fluorouracil (100 mg/kg) and gemcitabine (500 mg/kg). Each mouse IP injections were administered 20 hrs after transfection, and two consecutive IT and IP injections were given. Animals were euthanized, and xenografts were harvested 48 hrs after the second IP injection. Xenografts were snap-frozen in liquid nitrogen and homogenized in RIPA buffer (150 mM NaCl, 10 mM Tris at pH 7.5, 5 mM EDTA at pH 7.5, 100 mM PMSF, 1 μg/ml leupeptin and 2 μg/ml aprotinin). After three freeze-thaw lysis cycles, the homogenate was centrifuged for 10 minutes at 4° C. TNF-α levels in the supernatants were measured as described above.

[2] = system: PROb xenografts; assay type: in vivo, nude mice; settings: IT vector 5×10^9 p.u. + IP agent vs vector plus NS, cisplatin 9, cyclophosphamide 160, doxorubicin 15, 5-FU 100, gemcitabine 500 mg/kg
Method: as §1

[3] = system: PC-3 xenografts; assay type: in vivo, athymic nude mice; settings: vector + IP agent days 1 and 2, cisplatin 9, cyclophosphamide 160, doxorubicin 15, 5-FU 100, gemcitabine 500 mg/kg
Method: (§2) Saline or chemotherapeutic agents administered IP on days 1 and 2, including 9 mg/kg cisplatin, 160 mg/kg cyclophosphamide, 15 mg/kg doxorubicin, 100 mg/kg 5-FU and 500 mg/kg gemcitabine. Animals were euthanized, and xenografts were harvested 24 hrs after the second IP injection. Xenografts were snap-frozen in liquid nitrogen and homogenized in RIPA buffer (150 mM NaCl, 10 mM Tris pH 7.5, 5 mM EDTA pH 7.5, 100 mM PMSF, 1 µg/ml leupeptin and 2 μg/ml aprotinin) using a Brinkman Polytron homogenizer (Kinematica AG, Lucerne, Switzerland). After three freeze-thaw lysis cycles, the homogenate was centrifuged at 7800×g in a Sorvall RC-5C SS34 rotor (Kendro Laboratory Products, Newtown, Conn.) for 10 min at 4° C. TNF-α levels in the supernatants were measured by ELISA as described above.

[4] = system: PROb xenografts; settings: for induction of TNF-α protein: PROb xenografts, vector + IP agent vs vector alone, cisplatin 9, cyclophosphamide 160, doxorubicin 15, 5-FU 100, gemcitabine 500 mg/kg
Method: as §2

[5] = system: PC-3 cells; test: Chemo-inducibility of Ad.Egr-TNF.11D in vitro, PC-3 cells
Method: (§3) PC-3 and PROb cells were plated, infected with Ad.Egr.TNF, and incubated as discussed above. After incubation, 200 μl of CM, with or without chemotherapeutic agents, including cisplatin (250 μM), doxorubicin (3 μM), 5-fluorouracil (100 mM), gemcitabine (3 mM) and paclitaxel (14 μM) were added. Conditioned medium was harvested 24 hrs. later, and TNF-α concentration was measured (Quantikine Human TNF-α ELISA kit, R & D Systems, Minneapolis, Minn.).

[6] = system: PC-3 cells; test: Chemo-sensitivity by MTS assay, PC-3 cells; assay type: cell-based, human; settings: PC-3, Ad.Egr-TNF.11D and chemotherapy 24 hrs
Method: (§4) Chemo-sensitivity of PC-3 and PROb cells as determined by MTS assay. PC-3 and PROb cells were plated at a density of 10^5 cells/100 μl medium in 96-well tissue culture plates and incubated overnight. […] After incubation, 200 μl of complete media, with or without chemotherapeutic agents, was added. Chemotherapeutic agents used were at final concentrations of cisplatin at 46 and 460 μM, doxorubicin at 3 and 300 μM, 5-fluorouracil at 2 and 200 mM and paclitaxel at 1.4 and 140 μM. Media was removed 24 hrs later and each well was rinsed with 200 μl of complete media (CM) and aspirated. 100 μl of CM was then added with 20 μl of CellTiter 96® Aqueous One Solution Cell Proliferation Assay solution (Promega, Madison, Wis.), and the cells were allowed to incubate for 1 hr. Absorbance was measured at 490-650 nm.

[7] = system: PROb cells; test: Chemo-inducibility of Ad.Egr-TNF.11D in vitro, PROb cells; assay type: cell-based, rat
Method: as §3

[8] = system: PC-3 cells; test: Preliminary in vitro TNF-α induction, PC-3 cells; assay type: cell-based, human; settings: vector treated PC-3 cells (100 MOI), 24 hrs; cisplatin 250 μM, doxorubicin 3 μM, 5-FU 20 mM, paclitaxel 14 μM
Method: (§5) In vitro measurement of TNF-α protein. PC-3 and PROb cells were plated in 96-well plates, grown overnight, and infected with Ad.Egr.TNF at 100 multiplicities of infection, incubated for three hrs, and were then treated with cisplatin (250 μM), doxorubicin (3 μM), 5-FU (20 mM) or paclitaxel (14 μM). Supernatants were harvested 24 hrs later and human TNF-α production was quantified by ELISA. Experiments were performed in quintuplicate.

[9] = system: PROb cells; test: Preliminary in vitro TNF-α induction, PROb cells; assay type: cell-based, rat; settings: PROb cells treated with Ad.TNF (100 MOI), 24 hrs; cisplatin 250 μM, doxorubicin 3 μM, 5-FU 20 mM, paclitaxel 14 μM
Method: as §5

[10] = system: PROb cells; test: Chemo-sensitivity by MTS assay, PROb cells; assay type: cell-based, rat; settings: Ad.Egr-TNF.11D and chemotherapy 24 hrs
Method: as §4

[11] = system: PC-3 cells; test: N-acetyl cysteine effects on TNF-α production in vitro, PC-3 cells; assay type: cell-based, human
Method: (§6) N-acetyl cysteine effects on TNF-α production in vitro. PC-3 and PROb cells were plated and infected with Ad.Egr-TNF.11D as described above. PC-3 and PROb cells were treated with NAC at 0 mM, 10 mM, 20 mM and 30 mM, followed immediately by the addition of 100 mM 5-FU. Conditioned medium was collected after 24 hrs of incubation at 37° C. and stored at −20° C. TNF-α levels were determined by ELISA.
(§7) PC-3 and PROb cells were plated and infected with Ad.Egr-TNF.11D as above. Prior to the addition of chemotherapeutic agents (cisplatin, doxorubicin, 5-FU, gemcitabine and paclitaxel), 20 mM NAC in 0.1 ml complete medium was added to each well. Conditioned medium was collected after 24 hrs. of incubation at 37° C., and stored at −20° C. TNF-α levels were determined by ELISA.

[12] = system: PROb cells; test: N-acetyl cysteine effects on TNF-α production in vitro, PROb cells; assay type: cell-based, rat
Method: as §6, §7

[13] = system: Egr-1 promoter; test: In vitro luciferase reporter assay, PROb cells; assay type: cell-based, rat
Method: (§8) In vitro luciferase reporter assay. […] JM109 competent cells (Stratagene, La Jolla, Calif.) were transformed with these plasmids, endotoxin-free maxipreps (Qiagen, Valencia, Calif.) were prepared, and product confirmation was performed by PCR, sequencing, enzyme restriction, and gel electrophoresis.
(§9) All groups were co-transfected with the Renilla luciferase reporter plasmid construct pRL-TK (HSV thymidine kinase promoter) to normalize for transfection efficiency. […] Cells were harvested 6 hrs later, and luciferase activity was measured using the Dual-Luciferase reporter assay system (Promega).

[14] = system: PROb xenografts; test: In vivo regrowth study, PROb xenografts; parameters: species or system athymic nude mice; settings: IT vector 2×10^8 p.u., IP cisplatin 3 mg/kg, 4 daily injections, cisplatin line = with null vector
Method: (§10) In vivo regrowth studies. Seg-1 or PROb cells (5×10^6/0.1 ml) were injected in the right hind limb of nude mice. […] IP NS or cisplatin injections were given following the IT vector injection, and 4 consecutive daily IT and IP injections were given. Xenografts were measured every 2 days using calipers and tumor volume was calculated (length×width×thickness)/2. Fractional tumor volumes (V/Vo, Vo=day 0 volume) were calculated and plotted.

[15] = system: Egr-1 promoter; test: In vitro luciferase reporter assay, Seg-1 cells; assay type: cell-based, human
Method: as §8, §9

[16] = system: Seg-1 xenografts; test: In vivo regrowth study, Seg-1 xenografts; parameters: species or system athymic nude mice; settings: IT vector 2×10^8 p.u., IP cisplatin 3 mg/kg, 4 daily injections, cisplatin line = with null vector
Method: as §10

[17] = vector-infected PC-3 cells, 24 hrs, cisplatin 250 μM, 5-FU 100 mM, gemcitabine 3 mM, paclitaxel 14 μM
[18] = higher concentration: cisplatin 460 μM, doxorubicin 300 μM, 5-FU 200 mM, taxol 140 μM
[19] = lower concentration: cisplatin 46 μM, doxorubicin 3 μM, 5-FU 2 mM, taxol 1.4 μM
[20] = vector-infected PROb cells, 24 hrs, cisplatin 250 μM, doxorubicin 3 μM, 5-FU 100 mM, gemcitabine 3 mM, paclitaxel 14 μM

O=c1[nH]cc(F)c(=O)[nH]1 [5-FU, 5-fluorouracil]
induced TNF-α [1]: 4.2 fold
increased TNF-α levels [2]: 1.9 fold
increase in TNF-α levels [3]: 4.4 fold
induction of TNF-α protein [4]: 1.9 fold
increase in TNF-α levels [5, 17]: 67.4 fold
surviving fraction [6, 18]: 20%
surviving fraction [6, 19]: 80%
increase in TNF-α levels [7, 20]: 1.7 fold
increased TNF levels [8]: 1.8 fold
increased TNF levels [9]: 2.3 fold
surviving fraction [10, 18]: 38%
surviving fraction [10, 19]: 69%

CC(=O)N[C@@H](CS)C(=O)O [NAC, N-Acetylcysteine]
effect on concentration of TNF-α protein ([11]; Ad.Egr-TNF.11D transduced PC-3 cells treated with cisplatin, 5-FU, gemcitabine and paclitaxel, 20 mM NAC): significantly decreased the concentration of TNF-α protein
effect on concentration of TNF-α protein ([11]; PC-3 cells infected with Ad.Egr-TNF.11D and treated with 100 mM 5-FU, NAC 10 mM to 30 mM): decrease the concentration of TNF-α protein
effect on induction of TNF-α ([12]; PROb cells treated with cisplatin, 5-FU, gemcitabine or paclitaxel (data not shown)): significantly reduced the induction of TNF-α
effect on induction of TNF-α ([12]; PROb cells, 3 μM doxorubicin, 20 mM NAC): significantly reduced the induction of TNF-α

N.N.[Cl][Pt][Cl] [cisplatin]
induced TNF-α [1]: 3.5 fold
increased TNF-α levels [2]: 1.9 fold
LA ([13]; PROb cells transfected with pGL3 425, 50 μM cisplatin): 49.40
increase in LA ([13]; PROb cells transfected with pGL3 425, 50 μM cisplatin vs untreated control): 3.6 fold
increase in TNF-α levels [3]: 3.1 fold
tumor regression [14]: moderate tumor regression
induction of TNF-α protein [4]: 2.6 fold
increase in TNF-α levels [5]: 3.8 fold
surviving fraction [6, 18]: 60%
surviving fraction [6, 19]: 90%
LA ([15]; Seg-1 cells transfected with pGL3 425, 50 μM cisplatin): 2.89
increase in LA ([15]; Seg-1 cells transfected with pGL3 425, 50 μM cisplatin vs untreated control): 2.0 fold
increase in TNF-α levels [7]: 1.3 fold
increased TNF levels [8]: 6.5 fold
increased TNF levels [9]: 1.6 fold
surviving fraction [10, 18]: 77%
surviving fraction [10, 19]: 77%
tumor regression [16]: moderate tumor regression

O=P1(N(CCCl)CCCl)NCCCO1 (centres unmarked) [cyclophosphamide, Cyclophosphamide]
induced TNF-α [1]: 4.4 fold
increased TNF-α levels [2]: 2.8 fold
increase in TNF-α levels [3]: 4.4 fold
induction of TNF-α protein [4]: 3.0 fold

CC(=O)O[C@H]1C(=O)[C@@]2(C)[C@H]([C@H](OC(=O)c3ccccc3)[C@]3(O)C[C@H](OC(=O)[C@H](O)[C@@H](NC(=O)c4ccccc4)c4ccccc4)C(C)=C1C3(C)C)[C@]1(OC(C)=O)CO[C@@H]1C[C@@H]2O [paclitaxel, Paclitaxel]
systemic toxicity ([4]; mouse, in vivo): severe systemic toxicity
increase in TNF-α levels [5, 17]: 1.7 fold
surviving fraction [6, 18]: 10%
surviving fraction [6, 19]: 80%
increase in TNF-α levels [7, 20]: 4.5 fold
increased TNF levels [8]: 1.8 fold
increased TNF levels [9]: 3.0 fold
surviving fraction [10, 18]: 8%
surviving fraction [10, 19]: 85%

Gemcitabine diphosphate
increased TNF-α levels [2]: 1.8 fold
increase in TNF-α levels [3]: 3.1 fold
induction of TNF-α protein [4]: 2.5 fold
increase in TNF-α levels [5, 17]: 2.7 fold
increase in TNF-α levels [7, 20]: 3.5 fold
increased TNF levels [9]: 5.4 fold
